Data published in paper PMC3177605 (Bioorganic & medicinal chemistry letters, 2009).
pIC50: −log10 of the molar value. One block for each compound: values may come before it.

Assays:
mGluR5 [1] = assay: functional mGluR5 antagonist assay; assay type: cell-based; conditions: for IC50 in functional HTS: identified from the functional HTS
mGluR5 [2] = target: mGluR5 (Rattus norvegicus, UniProt P31424); assay: functional mGluR5 antagonist assay; assay type: cell-based
mGluR5 (Rattus norvegicus, UniProt P31424), sequence (P31424 21-1203): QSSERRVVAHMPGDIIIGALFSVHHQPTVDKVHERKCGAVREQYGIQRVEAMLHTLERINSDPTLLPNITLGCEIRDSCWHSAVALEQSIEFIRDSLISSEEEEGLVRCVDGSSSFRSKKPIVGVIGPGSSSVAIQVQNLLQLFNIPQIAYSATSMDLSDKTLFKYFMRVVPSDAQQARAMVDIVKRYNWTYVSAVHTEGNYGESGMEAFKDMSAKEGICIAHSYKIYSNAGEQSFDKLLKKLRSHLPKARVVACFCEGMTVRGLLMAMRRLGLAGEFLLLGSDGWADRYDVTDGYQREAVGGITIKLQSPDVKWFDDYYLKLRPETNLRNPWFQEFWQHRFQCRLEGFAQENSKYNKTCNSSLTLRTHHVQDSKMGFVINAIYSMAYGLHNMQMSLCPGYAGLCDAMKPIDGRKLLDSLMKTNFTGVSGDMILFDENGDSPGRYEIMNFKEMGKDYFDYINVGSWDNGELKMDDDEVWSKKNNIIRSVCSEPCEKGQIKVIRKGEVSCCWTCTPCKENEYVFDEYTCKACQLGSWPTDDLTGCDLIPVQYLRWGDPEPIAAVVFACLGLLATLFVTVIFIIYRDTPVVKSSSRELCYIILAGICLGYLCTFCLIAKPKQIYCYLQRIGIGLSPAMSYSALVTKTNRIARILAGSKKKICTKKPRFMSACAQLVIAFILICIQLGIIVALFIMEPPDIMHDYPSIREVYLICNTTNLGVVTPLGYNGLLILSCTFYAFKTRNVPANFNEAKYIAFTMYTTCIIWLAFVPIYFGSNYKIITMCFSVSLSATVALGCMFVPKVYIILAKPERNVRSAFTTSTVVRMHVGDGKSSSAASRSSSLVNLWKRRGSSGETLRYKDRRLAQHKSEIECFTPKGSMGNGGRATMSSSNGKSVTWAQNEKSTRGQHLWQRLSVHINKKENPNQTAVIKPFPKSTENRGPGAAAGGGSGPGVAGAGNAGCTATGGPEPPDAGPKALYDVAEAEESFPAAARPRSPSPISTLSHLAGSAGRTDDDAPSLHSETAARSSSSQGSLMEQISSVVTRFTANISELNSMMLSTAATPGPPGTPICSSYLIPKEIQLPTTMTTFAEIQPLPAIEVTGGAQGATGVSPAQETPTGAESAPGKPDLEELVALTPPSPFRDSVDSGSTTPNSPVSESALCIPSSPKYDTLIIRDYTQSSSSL

mGluR5, sequence (P31424 21-1203): as above

IC50 in functional HTS (mGluR5 [1]): submicromolar
Compound: O=C(c1ccco1)N1CCCC2(CCCCC2)C1 [Cmpd 10]

IC50 in functional HTS (mGluR5 [1]): submicromolar
Compound: O=C(N1CCN(c2ccccn2)CC1)C12CC3CC(CC(C3)C1)C2 [Cmpd 11]

pIC50 (mGluR5 [2]; read-out: mGluR5 IC50, newly synthesized material): 6.82
Compound: Cc1cc(C)c2c(N)c(C(=O)c3ccc(F)cc3)oc2n1 [Cmpd 12, (3-amino-4,6-dimethylfuro[2,3-b]pyridine-2-yl)(4-fluorophenyl)methanone]
% Glu Max (mGluR5 [2]; upon resynthesis): 1.39%

mGluR5 inhibitory activity (mGluR5 [1]): loses all mGluR5 inhibitory activity
Compound: O=C(N1CCN(c2ccncc2)CC1)C12CC3CC(CC(C3)C1)C2 [Cmpd 20b]
